Laboratory results from PubChem BioAssay AID292 (DTP/NCI, 2004).
Inconclusive results and toxic doses are left out. Rule for the calls: active = survival T/C of 150% or more; inactive = T/C below 125% in these data.

System: B6C3F1 mice, ip Sarcoma M5076, median survival T/C
Test: NCI In Vivo Anticancer Drug Screen. Data for tumor model Sarcoma M5076 (intraperitoneal) in B6C3F1 mice
Settings: endpoint: median survival time, schedule: Q04DX004 (ip), vehicle: saline with Tween-80, higher = longer survival
Procedure, shortened: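 Mice carrying the transplanted tumour received compound treatment. Survival was recorded, and each value is the treated-group measurement divided by that of the vehicle-dosed control group.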

Measured: T/C

Cc1cc(Br)c2nsnc2c1[N+](=O)[O-]
inactive: dose: 50.0 mg/kg/injection 96 % of control | dose: 100.0 mg/kg/injection 112 % of control | dose: 200.0 mg/kg/injection 104 % of control | dose: 400.0 mg/kg/injection 103 % of control | dose: 800.0 mg/kg/injection 87 % of control
